Measured values published in patent US20030176314A1, “Compounds for the treatment of pain” (priority 2001, published 2003).
Counter-ions that a name gives are not always drawn.

Experiments:
[1] = biological target: T1, human α2B adrenergic receptor (Homo sapiens, UniProt P18089); assay: Binding at human α2B adrenergic receptor; conditions: Table 8; read-out: hα2B Ki
T1 construct: host or cells: LM(tk-) cells, line L-NGC-α2B
T1 sequence (P18089 1-450): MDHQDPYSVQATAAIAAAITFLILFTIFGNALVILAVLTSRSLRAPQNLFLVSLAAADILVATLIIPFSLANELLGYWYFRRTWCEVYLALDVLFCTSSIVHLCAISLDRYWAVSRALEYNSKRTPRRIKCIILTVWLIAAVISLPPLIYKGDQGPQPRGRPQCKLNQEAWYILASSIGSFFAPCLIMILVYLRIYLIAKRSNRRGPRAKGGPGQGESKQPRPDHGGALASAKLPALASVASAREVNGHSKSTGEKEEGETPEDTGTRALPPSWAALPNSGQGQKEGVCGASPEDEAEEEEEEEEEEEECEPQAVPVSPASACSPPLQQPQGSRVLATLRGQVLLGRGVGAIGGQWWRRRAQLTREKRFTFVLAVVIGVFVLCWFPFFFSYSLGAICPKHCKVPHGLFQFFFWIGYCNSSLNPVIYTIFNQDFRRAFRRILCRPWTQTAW
Source text: (§1) α2 Human Adrenergic Receptors: To determine the binding of compounds to human α2 receptors, LM(tk−) cell lines stably transfected with the genes encoding the α2A, α2B, and α2C receptors were used. The cell line expressing the α2A receptor is designated L-α2A, and was deposited on Nov. 6, 1992, under ATCC Accession No. CRL 11180. The cell line expressing the α2B receptor is designated L-NGC-α2B, and was deposited on Oct. 25, 1989, under ATCC Accession No. CRL 10275. The cell line expressing the α2C receptor is designated L-α2C, and was deposited on Nov. 6, 1992, under ATCC Accession No. CRL-11181. Cell lysates were prepared as described herin, and suspended in 25 mM glycyiglycine buffer (pH 7.6 at room temperature). Equilibrium competition binding assay were performed using […] (0.5 nM), and nonspecific binding was determined by incubation with 10 μM phentolamine. The bound radioligand was separated by filtration through GF/B filters using a cell harvester.
(§2) The binding affinity (Ki) of these compounds were tested according to the protocols described herein at the following receptors; human α1A, α1B, α1D, α2A, α2B, and α2C adrenergic receptors; human Y1, Y2, Y4, and Y5 receptors; and N-Methyl-D-aspartic acid (NMDA) receptor channels. The binding interactions of these compounds were additionally tested at the norepinephrine (NE) transporter (NE uptake) and serotonin (5-hydroxytryptamine (5HT)) transporter (5HT uptake) according to protocols described herein

[2] = biological target: T2, human α2C adrenergic receptor (Homo sapiens, UniProt P18825); assay: Binding at human α2C adrenergic receptor; conditions: Table 8; read-out: hα2C Ki
T2 construct: host or cells: LM(tk-) cells, line L-α2C
T2 sequence (P18825 1-462): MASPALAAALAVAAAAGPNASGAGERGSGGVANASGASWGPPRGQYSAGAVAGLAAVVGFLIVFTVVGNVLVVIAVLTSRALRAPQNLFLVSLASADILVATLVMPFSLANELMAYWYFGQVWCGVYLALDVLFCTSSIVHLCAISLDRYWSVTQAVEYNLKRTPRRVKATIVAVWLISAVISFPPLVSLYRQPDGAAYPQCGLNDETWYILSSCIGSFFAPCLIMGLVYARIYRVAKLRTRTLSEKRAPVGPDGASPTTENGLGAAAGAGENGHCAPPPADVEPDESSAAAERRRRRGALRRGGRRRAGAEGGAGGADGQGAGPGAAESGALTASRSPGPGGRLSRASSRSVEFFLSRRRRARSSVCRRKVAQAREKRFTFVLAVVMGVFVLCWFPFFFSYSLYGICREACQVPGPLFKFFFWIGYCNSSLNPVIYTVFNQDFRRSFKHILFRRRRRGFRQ
Source text: as §1, §2

[3] = biological target: N-methyl-D-aspartate (NMDA) receptor channel complex; assay: Binding at native NMDA receptor channels; design: species or system rat; conditions: Table 8
Method: NMDA Receptor Channels: The methods to determine binding affinity at native N-methyl-D-aspartate (NMDA) receptor channels are described in Wong E. H. et al. (1988), the disclosure of which is hereby incorporated by reference in its entirety into this application.
as §2

rat NPFF2 receptor = biological target: T3, rat NPFF2 receptor (Rattus norvegicus, UniProt Q9EQD2); assay: Functional assay (agonist potency, intrinsic activity) at cloned rat NPFF2 receptor; assay type: cell-based; conditions: Table 7, intrinsic activity
T3 construct: The full-length NPFF2 was amplified from rat spinal cord cDNA; expressed in transfected cells; host or cells: not given
T3 sequence (Q9EQD2 whole entry): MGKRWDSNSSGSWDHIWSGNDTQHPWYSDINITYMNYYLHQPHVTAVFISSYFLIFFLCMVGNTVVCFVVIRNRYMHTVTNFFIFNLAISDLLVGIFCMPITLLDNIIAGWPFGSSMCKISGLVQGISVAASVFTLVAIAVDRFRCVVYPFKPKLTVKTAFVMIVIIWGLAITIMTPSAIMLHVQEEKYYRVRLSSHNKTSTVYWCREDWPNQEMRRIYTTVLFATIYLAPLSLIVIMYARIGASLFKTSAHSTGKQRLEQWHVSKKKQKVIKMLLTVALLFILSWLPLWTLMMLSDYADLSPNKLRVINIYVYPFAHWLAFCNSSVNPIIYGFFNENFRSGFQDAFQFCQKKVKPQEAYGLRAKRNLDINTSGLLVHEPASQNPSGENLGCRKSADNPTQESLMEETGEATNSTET

[4] = biological target: T4, human α2A adrenergic receptor (Homo sapiens, UniProt P08913); assay: Binding at human α2A adrenergic receptor; conditions: Table 8; read-out: hα2A Ki
T4 construct: host or cells: LM(tk-) cells, line L-α2A
T4 sequence (P08913 1-465): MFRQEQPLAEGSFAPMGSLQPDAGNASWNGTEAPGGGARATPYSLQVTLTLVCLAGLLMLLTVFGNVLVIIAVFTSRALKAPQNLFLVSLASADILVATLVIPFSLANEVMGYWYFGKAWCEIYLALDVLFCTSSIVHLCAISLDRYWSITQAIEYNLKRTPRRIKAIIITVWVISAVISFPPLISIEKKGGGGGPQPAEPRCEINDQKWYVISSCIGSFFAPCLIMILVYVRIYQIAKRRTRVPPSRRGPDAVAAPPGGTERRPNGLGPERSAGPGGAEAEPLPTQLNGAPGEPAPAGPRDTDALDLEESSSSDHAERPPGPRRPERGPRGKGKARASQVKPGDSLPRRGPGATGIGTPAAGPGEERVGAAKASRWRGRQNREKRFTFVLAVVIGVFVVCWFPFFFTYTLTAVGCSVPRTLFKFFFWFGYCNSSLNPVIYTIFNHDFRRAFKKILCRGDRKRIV
Source text: as §1, §2

[5] = biological target: T5, norepinephrine (NE) transporter (Rattus norvegicus, UniProt Q63380); assay: Binding at native norepinephrine transporter (NE uptake); conditions: Table 8
T5 construct: evaluated at native, tissue-derived transporters; from tissue
T5 sequence (Q63380 1-617): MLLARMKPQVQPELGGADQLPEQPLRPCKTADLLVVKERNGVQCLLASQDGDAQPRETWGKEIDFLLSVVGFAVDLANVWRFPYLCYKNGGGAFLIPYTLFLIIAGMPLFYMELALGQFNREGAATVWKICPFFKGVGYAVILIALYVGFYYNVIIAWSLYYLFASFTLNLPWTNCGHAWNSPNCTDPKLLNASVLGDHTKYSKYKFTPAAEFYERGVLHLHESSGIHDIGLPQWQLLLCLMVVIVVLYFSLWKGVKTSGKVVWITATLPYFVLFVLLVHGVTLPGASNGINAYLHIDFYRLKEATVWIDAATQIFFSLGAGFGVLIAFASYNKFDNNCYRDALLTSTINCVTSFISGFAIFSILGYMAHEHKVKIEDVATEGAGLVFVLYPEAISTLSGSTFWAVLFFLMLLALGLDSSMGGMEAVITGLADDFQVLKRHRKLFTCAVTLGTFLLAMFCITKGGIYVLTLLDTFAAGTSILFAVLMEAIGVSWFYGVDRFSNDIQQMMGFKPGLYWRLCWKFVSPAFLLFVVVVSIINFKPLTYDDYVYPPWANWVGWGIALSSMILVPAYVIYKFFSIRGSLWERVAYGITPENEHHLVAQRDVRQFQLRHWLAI
Method: (§3) Transporters: The binding properties of compounds were evaluated at native, tissue-derived transporters, namely serotonin (5HT) transporter and norepinephrine (NE) transporter, according to protocols described in Owens (1997), the disclosure of which is hereby incorporated by reference in its entirety into this application.
as §2

[6] = biological target: T6, serotonin (5HT) transporter (Rattus norvegicus, UniProt P31652); assay: Binding at native serotonin transporter (5HT uptake); conditions: Table 8
T6 construct: evaluated at native, tissue-derived transporters; from tissue
T6 sequence (P31652 whole entry): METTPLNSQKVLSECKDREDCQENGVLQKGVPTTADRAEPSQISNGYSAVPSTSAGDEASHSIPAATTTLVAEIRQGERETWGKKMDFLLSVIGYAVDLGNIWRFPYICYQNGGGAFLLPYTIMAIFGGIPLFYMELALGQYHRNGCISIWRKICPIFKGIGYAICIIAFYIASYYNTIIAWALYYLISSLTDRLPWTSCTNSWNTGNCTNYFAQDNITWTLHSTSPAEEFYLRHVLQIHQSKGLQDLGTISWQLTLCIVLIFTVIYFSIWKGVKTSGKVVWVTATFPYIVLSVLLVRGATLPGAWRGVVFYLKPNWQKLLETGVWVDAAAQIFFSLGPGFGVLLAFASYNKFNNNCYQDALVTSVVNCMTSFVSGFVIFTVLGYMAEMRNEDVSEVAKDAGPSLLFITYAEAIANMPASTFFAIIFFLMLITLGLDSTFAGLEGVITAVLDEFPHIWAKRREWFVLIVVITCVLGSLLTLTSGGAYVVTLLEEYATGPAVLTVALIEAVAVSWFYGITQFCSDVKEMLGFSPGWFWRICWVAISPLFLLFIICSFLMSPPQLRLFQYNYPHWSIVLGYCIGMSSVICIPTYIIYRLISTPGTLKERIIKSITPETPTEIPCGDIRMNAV
Method: as §3, §2

rat NPFF1 receptor = biological target: T7, rat NPFF1 receptor (Rattus norvegicus, UniProt Q9EP86); assay: Functional assay (agonist potency, intrinsic activity) at cloned rat NPFF1 receptor; assay type: cell-based; conditions: Table 7, intrinsic activity
T7 construct: expressed in transfected cells; host or cells: not given
T7 sequence (Q9EP86 whole entry): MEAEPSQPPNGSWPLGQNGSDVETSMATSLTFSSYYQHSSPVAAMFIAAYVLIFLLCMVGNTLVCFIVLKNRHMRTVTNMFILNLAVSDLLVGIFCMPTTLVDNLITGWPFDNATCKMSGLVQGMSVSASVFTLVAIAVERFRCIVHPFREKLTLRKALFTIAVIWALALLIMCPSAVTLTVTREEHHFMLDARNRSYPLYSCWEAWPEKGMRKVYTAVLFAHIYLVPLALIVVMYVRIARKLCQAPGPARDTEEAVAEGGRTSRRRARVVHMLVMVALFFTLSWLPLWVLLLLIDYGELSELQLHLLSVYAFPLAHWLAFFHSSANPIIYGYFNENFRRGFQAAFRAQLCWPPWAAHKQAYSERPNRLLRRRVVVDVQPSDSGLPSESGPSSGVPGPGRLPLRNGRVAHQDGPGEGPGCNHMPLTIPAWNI

human NPFF2 receptor = biological target: T8, human NPFF2 receptor (Homo sapiens, UniProt Q9Y5X5); assay: Functional assay (agonist potency, intrinsic activity) at cloned human NPFF2 receptor; assay type: cell-based; conditions: Table 6, intrinsic activity
T8 construct: one of these, B089, was determined to be a full length clone with no point mutations; expressed in transfected cells; host or cells: not given
T8 sequence (Q9Y5X5 103-522): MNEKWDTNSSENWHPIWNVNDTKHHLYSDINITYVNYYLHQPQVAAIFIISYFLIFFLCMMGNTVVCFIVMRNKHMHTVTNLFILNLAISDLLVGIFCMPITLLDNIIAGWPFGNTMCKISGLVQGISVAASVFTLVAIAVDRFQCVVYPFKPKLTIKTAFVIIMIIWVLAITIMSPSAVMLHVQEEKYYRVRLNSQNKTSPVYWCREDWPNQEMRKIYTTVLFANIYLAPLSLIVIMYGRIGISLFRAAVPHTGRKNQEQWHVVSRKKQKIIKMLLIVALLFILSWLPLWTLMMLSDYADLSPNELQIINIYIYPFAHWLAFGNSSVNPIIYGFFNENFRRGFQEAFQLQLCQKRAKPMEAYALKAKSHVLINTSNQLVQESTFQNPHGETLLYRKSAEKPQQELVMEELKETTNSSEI

[7] = system: distension induced contractions of the rat bladder; assay: Distension-induced rhythmic contraction (DIRC) model, micturition reflex in anesthetized rats; assay type: in vivo
Source text: This model is widely considered to be predictive for the actions of drugs to treat human urge incontinence (also refered to as detrusor instability or unstable bladder). Examples of drugs that are active in this model which also are used therapeutically in humans include oxybutynin and baclofen (Morikawa et al, 1992); imipramine and nortriptyline (Pietra et al, 1990); and nifedipine and terodiline (Guarneri et al, 1993).
Female Sprague Dawley rats weighing approximately 300 g were anesthetized with subcutaneous urethane (1.2 g/kg). The trachea was cannulated with PE240 tubing to provide a clear airway throughout the experiment. A midline abdominal incision was made and the left and right ureters were isolated. The ureters were ligated distally (to prevent escape of fluids from the bladder) and cannulated proximally with PE10 tubing. The incision was closed using 4-0 silk sutures, leaving the PE10 lines routed to the exterior for the elimination of urine. The bladder was canulated via the transurethral route using PE50 tubing inserted 2.5 cm beyond the urethral opening. This cannula was secured to the tail using tape and connected to a pressure transducer. To prevent leakage from the bladder, the cannula was tied tightly to the exterior urethral opening using 4-0 silk.
To initiate the micturition reflex, the bladder was first emptied by applying pressure to the lower abdomen, and then filled with normal saline in 100 μl increments (maximum=2 ml) until spontaneous bladder contractions occurred (typically 20-40 mmHg at a rate of one contraction every 2 to 3 minutes. Once a regular rhythm was established, vehicle (saline) or test compounds were administered i.v. to examine their effects on bladder activity. The effect of a compound which inhibited the micturition reflex was expressed as its “disappearance time”, defined as the time between successive bladder contractions in the presence of the test compound minus the time between contractions before compound administration.

[8] = system: distension induced contractions of the rat bladder; conditions: drugs used therapeutically in humans, from publications; cited from earlier work

SMILES: Cc1nc(NC(=N)N)nc2cc(OCc3ccccc3)ccc12 (as salt: salt) [Compound 1006A, N-[7-(benzyloxy)-4-methyl-2-quinazolinyl]guanidine]
- melting point: 215 to 217 °C (dec.)

SMILES: Cc1cc2nc(NC(=N)N)nc(C)c2cc1O (as salt: salt) [Compound 1017A, N-(6-hydroxy-4,7-dimethyl-2-quinazolinyl)guanidine]
- melting point: 246 to 248 °C (dec.)

SMILES: CCc1ccc2nc(NC(=N)N)nc(C)c2c1 [Compound 1003A, N-(6-ethyl-4-methyl-2-quinazolinyl)guanidine]
- Ki [1]: 31.8 µM
- Ki [2]: 8.45 µM
- Ki [3]: 19.5 µM
- rNPFF2 IA (rat NPFF2 receptor): 83% NPFF
- Ki [4]: 1.97 µM

SMILES: CCc1ccc2c(C)nc(NC(=N)N)nc2c1 [Compound 1020A, N-(7-ethyl-4-methyl-2-quinazolinyl)guanidine]
- Ki [1]: 20.9 µM
- Ki [2]: 4.13 µM
- rNPFF2 IA (rat NPFF2 receptor): 90% NPFF
- Ki [5]: 8.02 µM
- Ki [4]: 1.17 µM
- Ki [6]: 5.59 µM

SMILES: Cc1nc(NC(=N)N)nc2cc(C(C)(C)C)ccc12 [Compound 1022A, N-[7-(tert-butyl)-4-methyl-2-quinazolinyl]guanidine]
- melting point: 195 to 198 °C (dec.)
- rNPFF1 IA (rat NPFF1 receptor): 19% NPFF
- rNPFF2 IA (rat NPFF2 receptor): 81% NPFF

SMILES: Cc1nc(NC(=N)N)nc2cc(-c3ccccc3)ccc12 [Compound 1023A, N-(4-methyl-7-phenyl-2-quinazolinyl)guanidine]
- rNPFF2 IA (rat NPFF2 receptor): 35% NPFF
- hNPFF2 IA (human NPFF2 receptor): 43% NPFF

SMILES: Cc1nc(NC(=N)N)nc2cc3c(cc12)CCC3 [Compound 1038A, N-(4-methyl-7,8-dihydro-6H-cyclopenta[g]quinazolin-2-yl)guanidine]
- melting point: 295 to 298 °C (dec.)
- rNPFF2 IA (rat NPFF2 receptor): 74% NPFF

SMILES: CCC(C)c1ccc2nc(NC(=N)N)nc(C)c2c1 (stereo not drawn) [Compound 2002A, N-(6-sec-butyl-4-methyl-2-quinazolinyl)guanidine]
- Ki [1]: 12.9 µM
- rNPFF1 IA (rat NPFF1 receptor): 51% NPFF
- Ki [2]: 3.33 µM
- Ki [3]: 7.62 µM
- rNPFF2 IA (rat NPFF2 receptor): 92% NPFF
- Ki [4]: 0.713 µM

SMILES: Cc1ccc2c(C)cc(NC(=N)N)nc2c1 [Compound 4006A, N-(4,7-dimethyl-2-quinolinyl)guanidine]
- inhibition of distention induced contractions of the rat bladder ([7]; 3 mg/kg, i.v.): complete inhibition
- time for which inhibition of bladder activity persisted ([7]; i.v. administration, anesthetized rat (figure legends)): 12 min
- rNPFF2 IA (rat NPFF2 receptor): 32% NPFF
- Ki [5]: 12.4 µM
- Ki [6]: 8.79 µM

SMILES: CCCCCc1ccc2nc(NC(=N)N)cc(C)c2c1 [Compound 5002A, N-(4-methyl-6-pentyl-2-quinolinyl)guanidine]
- rNPFF1 IA (rat NPFF1 receptor): 41% NPFF
- rNPFF2 IA (rat NPFF2 receptor): 90% NPFF
- hNPFF2 IA (human NPFF2 receptor): 75% NPFF

SMILES: CCCCCCc1ccc2nc(NC(=N)N)cc(C)c2c1 [Compound 5003A, N-(6-hexyl-4-methyl-2-quinolinyl)guanidine]
- rNPFF1 IA (rat NPFF1 receptor): 27% NPFF
- rNPFF2 IA (rat NPFF2 receptor): 57% NPFF
- hNPFF2 IA (human NPFF2 receptor): 45% NPFF

SMILES: NCC(CC(=O)O)c1ccc(Cl)cc1 (stereo not drawn) [baclofen]
- activity in the DIRC model [8]: active

SMILES: CN(C)CCCN1c2ccccc2CCc2ccccc21 [imipramine]
- activity in the DIRC model [8]: active

SMILES: CNCCC=C1c2ccccc2CCc2ccccc21 [nortriptyline]
- activity in the DIRC model [8]: active

SMILES: CCN(CC)CC#CCOC(=O)C(O)(c1ccccc1)C1CCCCC1 (stereo not drawn) [oxybutynin]
- activity in the DIRC model [8]: active

SMILES: CC(CC(c1ccccc1)c1ccccc1)NC(C)(C)C (stereo not drawn) [terodiline]
- activity in the DIRC model [8]: active
